Experimental data reported in US6967196B1, “Sulfonamide compounds and uses thereof” (Bristol-Myers Squibb Company, priority 1999, dated 2005).
Like-named read-outs stand apart in the source and are kept apart here.

Test system: amyloid β production in transfected H4 (human neuroglioma) cells stably expressing APP constructs
Test: In vitro cell-based assay of inhibitors of amyloid β production (ELISA)
Settings: transfected H4 cells stably expressing APP, amyloid β in medium by ELISA, read-out: ACTIVITY (IC50, inhibition of amyloid β production)
Method in brief: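 Aβ secreted into the medium was determined by a two-antibody ELISA specific for the Aβ C-terminus, calibrated with known Aβ amounts. Before that, compounds (10-100 μM initially) were left on the cells for roughly 16 hours.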

[1] = approximately 16 hours incubation, Table B

Row | Compound | IC50 [1] [nM] | IC50 (approx. 16 h incubation) [nM]
1 | C[C@H](c1ccc(F)cc1CCCC(=O)O)N(c1cc(F)ccc1F)S(=O)(=O)c1ccc(Cl)cc1 [Example 494, 4-[2-((1R)-1-{[(4-chlorophenyl)sulfonyl]-2,5-difluoroanilino}ethyl) 5-fluorophenyl]butanoic Acid] | 100 to 500 | 
2 | C[C@H](c1ccc(F)cc1CCCC(=O)NC1CCCCC1)N(c1cc(F)ccc1F)S(=O)(=O)c1ccc(Cl)cc1 [Example 496, 4-[2-((1R)-1-{[(4-chlorophenyl)sulfonyl]-2,5-difluoroanilino}ethyl)-5-fluorophenyl]-N-cyclohexylbutanamide] | 100 to 500 | 
3 | CNC(=O)CCCc1cc(F)ccc1[C@@H](C)N(c1cc(F)ccc1F)S(=O)(=O)c1ccc(Cl)cc1 [Example 498, 4-[2-((1R)-1-{[(4-chlorophenyl)sulfonyl]-2,5-difluoroanilino}ethyl)-5-fluorophenyl]-N-methylbutanamide] | 100 to 500 | 
4 | CCCN(CCC)C(=O)CCCc1cc(F)ccc1[C@@H](C)N(c1cc(F)ccc1F)S(=O)(=O)c1ccc(Cl)cc1 [Example 500, 4-[2-((1R)-1-{[(4-chlorophenyl)sulfonyl]-2,5-difluoroanilino}ethyl)-5-fluorophenyl]-N,N-dipropylbutanamide] | 100 to 500 | 
5 | O=S(=O)(c1ccc(Cl)cc1)N(Cc1ccccc1OCCC[N+]1([O-])CCCCC1)c1ccccc1 [Example 505, 4-Chloro-N-{2-[3-(1-hydroxy-1˜lambda˜5˜piperidin-1-yl)propoxy]benzyl}-N-phenylbenzenesulfonamide] | 100 to 500 | 
6 | O=S(=O)(c1ccc(Cl)cc1)N(Cc1ccccc1OCCC[N+]1([O-])CCCCC1)c1cc(Cl)ccc1Cl [Example 506] | 100 to 500 | 
7 | O=S(=O)(c1ccc(Cl)cc1)N(Cc1ccccc1OCCC[N+]1([O-])CCCC1)c1cc(F)ccc1F [Example 507] | 100 to 500 | 
8 | C[N+]1(CCCOc2ccccc2CN(c2cc(Cl)ccc2Cl)S(=O)(=O)c2ccc(Cl)cc2)CCCCC1 [Example 513, 1-{3-[2-({2,5-dichloro[(4-chlorophenyl)sulfonyl]anilino}methyl)phenoxy]propyl}-1-methylpiperidinium Iodide] | 100 to 500 | 
9 | C[C@H](COC(=O)NCCCn1ccnc1)N(c1cc(F)ccc1F)S(=O)(=O)c1ccc(Cl)cc1 [Example 517, 4-Chloro-N-(2,5-difluorophenyl)-N-[2-[[N′-[3-(1 h-imidazol-1-yl)propylamino]carbonyl]oxy]-(r)-1-methylethyl]benzenesulfonamide] | 100 to 500 | 
10 | CC(C)[C@H](NC(=O)CCC[C@@H](C)N(c1cc(Cl)ccc1F)S(=O)(=O)c1ccc(Cl)cc1)C(=O)O [Example 536, (R)-4-Chloro-N-(5-chloro-2-fluorophenyl)-N-[5-[N-(S)-[1-(carboxy)-2-methylpropyl]amino]-1-methyl-5-oxopentyl]benzenesulfonamide] | 100 to 500 | 
11 | COC(=O)[C@@H](NC(=O)CC[C@@H](C)N(c1cc(Cl)ccc1F)S(=O)(=O)c1ccc(Cl)cc1)C(C)C [Example 537, (R)-4-Chloro-N-(5-chloro-2-fluorophenyl)-N-[4-[N-(S)-[1-(methoxycarbonyl)-2-methylpropyl]amino]1-methyl-4-oxobutyl]benzenesulfonamide] | 100 to 500 | 
12 | COC(=O)[C@H](CC(C)C)NC(=O)CC[C@@H](C)N(c1cc(Cl)ccc1F)S(=O)(=O)c1ccc(Cl)cc1 [Example 538] | 100 to 500 | 
13 | COC(=O)[C@H](CC(C)C)NC(=O)CCC[C@@H](C)N(c1cc(Cl)ccc1F)S(=O)(=O)c1ccc(Cl)cc1 [Example 541] |  | 100 to 500
14 | COC(=O)[C@@H](NC(=O)CCCC[C@@H](C)N(c1cc(Cl)ccc1F)S(=O)(=O)c1ccc(Cl)cc1)C(C)C [Example 542, (R)-4-Chloro-N-(5-chloro-2-fluorophenyl)-N-[6-[N-(S)-[1-(methoxycarbonyl)-2-methylpropyl]amino]-1-methyl-6-oxohexyl]benzenesulfonamide] |  | 100 to 500
